Data set [1] is described as follows: Cytotoxicity in HepG2 (galactose) cells, 5-day treatment. To be noted: human, HepG2 cells (galactose).
Experimental: (§2) All cells were cultured at 37°C in a 5% CO2 incubator with 90% humidity unless noted otherwise. […] All cells were treated with the various compounds for 5 days, except for human erythroid and myeloid progenitors, which were treated for 14 days. After the incubation period, cell viability was measured by the addition of CellTiter Glo viability reagents (Promega, Madison, WI). The luminescence signal was quantified on an Envision luminescence plate reader (PerkinElmer, Waltham, MA) after incubation of the reagents and cells for 10 min at room temperature. […] CC50 values were calculated as the average of the results of three or four independent experiments.
Cell Culture and Cytotoxicity Studies
(§3) The Huh-7 cells were maintained in growth medium containing Dulbecco's Modified Eagle
(§4) Medium (DMEM, Cellgro) supplemented with 1% Nonessential Amino Acids (NEAA, Cellgro,
(§5) Manassas, VA), 10% fetal bovine serum (FBS, HyClone, Logan, UT) and 1% Penicillin-
(§6) streptomycin-glutamate (PSG, Invitrogen, Carlsbad, CA). The cells were passaged twice weekly
(§7) and maintained at 90% confluence densities.
(§8) The HepG2 cells were maintained in Eagle’s Minimum Essential Medium (EMEM) from ATCC
(§9) (Manassas, VA) supplemented with 10% FBS, 100 units/mL penicillin and 100 µg/mL
(§10) streptomycin (P/S) (Gibco). The cells were passaged twice weekly and maintained at 90%
(§11) The PC-3 cells were maintained in Kaighn’s F12 medium (Gibco, Carlsbad, CA) supplemented
(§12) with 10% FBS (HyClone, Logan, UT), 100 units/mL penicillin and 100 µg/mL streptomycin
(§13) (P/S) (Gibco). The cells were passaged twice weekly and maintained at 90% confluence. Cells
(§14) between passages 4 and 15 were used in the assays.
(§15) The fibroblast cell line MRC-5 cell line derived from normal lung tissue, was purchased from
(§16) ATCC (Manassas, VA) and cultured in Minimum Essential Medium (MEM) (Cellgro, Manassas,
(§17) VA) supplemented with 10% FBS (HyClone, Logan, UT) and 1% PSG (Invitrogen). The cells
(§18) were passaged twice weekly and maintained at 90% confluence densities.
A short description of data set [2]: Cytotoxicity / ATP level in PC-3 cells, 5-day treatment. Particulars: human, PC-3 cells.
The next data set relates to Prostate cells (PC-3). The data set is described as above. Particulars: read-out: Mean CC50 ± SD causing General cellular toxicity: ATP level; PC-3 cells, 5 days.
The target of a further data set is T1, recombinant human PolRMT (Homo sapiens, UniProt O00411).
T1 construct: purchased Enzymax (Lexington, KY)
The data set can be described thus: Single-nucleotide incorporation by PolRMT. Particulars: triphosphate form, fixed saturating concentration 500 μM, rate relative to corresponding natural rNTP. The class given is biochemical. An excerpt: Activated fish sperm DNA was purchased from USB/Affymetrix (Santa Clara, CA) and used as a template for the DNA polymerases alpha, beta, and gamma. The DNA template used in the RNA Pol II assay was a 1,188-bp restriction fragment containing the cytomegalovirus (CMV) immediate early promoter (Promega, Madison, WI). The RNA and DNA oligonucleotides used in the mitochondrial RNA polymerase assay (see Table S1 in the supplemental material) were synthesized and PAGE purified by Thermo Scientific/Dharmacon (Lafayette, CO). RNA primer R12 was 5′-^32P-phosphorylated with [γ-^32P]ATP (3,000 Ci/mmol) and T4 kinase (New England BioLabs, Ipswich, MA).
(§1) Human DNA polymerase alpha, isolated from HeLa cell extracts, was from CHIMERx (Madison, WI). Recombinant human DNA polymerase beta, expressed in E. coli, was a gift from Zucai Suo at The Ohio State University. Recombinant human DNA polymerase gamma (including both the large subunit and the small subunit) was cloned, expressed, and purified from insect cells by Gilead Sciences (Foster City, CA) ([13]). RNA PolII was purchased as part of the HeLaScribe nuclear extract in vitro transcription system kit from Promega (Madison, WI). The recombinant human PolRMT and the transcription factors mitochondrial transcription factor A (mtTFA) and B2 (mtTFB2) were purchased from Enzymax (Lexington, KY). FLAG epitope-tagged RNA PolI and PolIII complexes were isolated from rat NSN1 cells and HeLa cells, respectively ([17], [18]). The inhibition of DNA polymerases alpha, beta, and gamma, PolRMT, and PolII and the rate of single-nucleotide incorporation by PolRMT have been described previously in detail ([12], [13], [19]). Inhibition of RNA PolI and PolIII was studied using published methods ([20], [21]). All concentrations were final unless noted otherwise. For the RNA PolI inhibition assay, a reaction mixture containing 50 mM HEPES (pH 7.9), 20% glycerol, 100 mM KCl, 1 mM dithiothreitol (DTT), 50 μg/ml calf thymus DNA, 4 mM MgCl2, 5 or 80 μM UTP (0.25 μl of [5,6-^3H]UTP, >25 Ci/mmol; PerkinElmer), 1 mM noncompeting NTP, competing NTP (5 μM for GTP, CTP, and UTP and 25 μM for ATP), and various concentrations (0 to 500 μM) of NTP analogs was preincubated at 30°C for 5 min. […] After incubation at 30°C for 20 min to 1 h, the reactions were terminated by pipetting the mixtures onto DEAE-cellulose discs (DE81; Whatman), and the products analyzed as described previously ([20], [21]).
Supplementary Table S1: RNA primer and templates used in mitochondrial RNA
polymerase single nucleotide incorporation assay.
Oligonucleotides Sequencesa
Primer (R12) 5’-[…]-3’
Templates (D18) 3’-[…]-5’
a The bold letter in the template sequences denotes the bases that pair with the incoming NTP. […]

Data set [3] is described as follows: Cytotoxicity in Huh7 cells, 5-day treatment (CellTiter Glo). Particulars: human, Huh-7 cells. (Cellular ATP, detected with luciferase, serves as a proxy for viable cell number.)
Experimental: as §2
Cell Culture and Cytotoxicity Studies
as §3, §4, §5, §6, §7, §8, §9, §10, §11, §12, §13, §14, §15, §16, §17, §18
Data set [4] in a line: Cytotoxicity in stimulated PBMCs, 5 days. Particulars: human, stimulated PBMCs.
Experimental: (§19) Human peripheral blood mononuclear cells (PBMCs) were isolated from human buffy coats obtained from healthy volunteers (Stanford Blood Bank, Palo Alto, CA) using standard Ficoll separation and stimulated as described elsewhere ([13]) and were tested at both quiescent and stimulated stages. Quiescent PBMCs were stimulated with 10 units per ml of recombinant human interleukin 2 (hIL-2) and 1 μg per ml phytohemagglutinin P (PHA-P) for 48 h prior to drug treatment.
as §2
(§20) Human peripheral blood mononuclear cells (PBMCs) were isolated from human buffy coats
(§21) obtained from normal healthy volunteers (Stanford Medical School Blood Center, Palo Alto,
(§22) CA). Total PBMCs were isolated from buffy coats using standard Ficoll separation and sterile
(§23) cellular isolation techniques performed in a bio-safety cabinet (1). Except where noted, the
(§24) procedure was carried out at room temperature. The final PBMCs pellet was resuspended in
(§25) Logan, UT), penicillin 100 units/mL and streptomycin 100 µg/mL (Gibco). For quiescent
(§26) PBMCs cultures, total cells were seeded in 96-well plates at a density of 1 x 10^6 cells per well, followed by immediate drug treatment. Stimulated PBMCs cultures were set up by seeding the freshly isolated PBMCs in T-175cm2 tissue culture flasks in 100 mL of RPMI containing the same components as the ones used for the quiescent PBMCs but with the addition of 10 units per mL of recombinant human interleukin-2 (hIL-2, Roche, Indianapolis, IN), and 1 µg per mL phytohemagglutinin-P (PHA-P, Sigma-Aldrich, St. Louis, MO) at density of 2  10^6 cells per mL for 48 hours at 37C in a 5% CO2 incubator with 90% humidity, prior to drug treatment.
The nature of data set [5]: Cytotoxicity in quiescent PBMCs, 5 days. Particulars: human, quiescent PBMCs.
Experimental: as §19, §2, §20, §21, §22, §23, §24, §25, §26
Data set [6] can be described thus: Bone marrow erythroid progenitor colony assay, 14 days. The format is cell-based, human. To be noted: human, read-out: Mean CC50 ± SD in Bone marrow cells Erythroid; for CC50 at 14 days: human bone marrow erythroid progenitors.
Data set [7] is described as follows: Bone marrow myeloid progenitor colony assay, 14 days. The format is cell-based, human. To be noted: human, read-out: Mean CC50 ± SD in Bone marrow cells Myeloid; for CC50 at 14 days: human bone marrow myeloid progenitors.
For a further data set, the system named is Quiescent PBMCs. More on the design: method as in PMID 24419349. Particulars: 5 days; read-out: Mean CC50 ± SD in PBMCs Quiescent; cited from earlier work.
In data set [8] the test system is human myeloid progenitors (bone marrow cells). Particulars: read-out: Mean CC50 ± SD in Bone marrow cells Myeloid; 14 days; cited from earlier work.
Data set [9] concerns human erythroid progenitors (bone marrow cells). Particulars: read-out: Mean CC50 ± SD in Bone marrow cells Erythroid; 14 days; cited from earlier work.
A short description of data set [10]: Spare respiratory capacity in primary rat cardiomyocytes. To be noted: Sprague Dawley, rat, primary rat neonatal cardiomyocytes.
Experimental: (§27) Primary rat neonatal cardiomyocytes were isolated from 3-day-old Sprague Dawley rat pups as described previously ([14]).
(§28) Mitochondrial respiration was monitored by measuring the rate of oxygen consumption (OCR) of PC-3 cells after 3-day treatments with the compounds, using a Seahorse extracellular flux analyzer (XF^e-96) based on published protocols ([22][–][24]). The optimal cell seeding was determined by measuring the basal OCR of PC-3 cells that were seeded at different densities of 2.5 × 10^3, 5 × 10^3, 7.5 × 10^3, and 10 × 10^3 cells/well in XF 96-well plates (Seahorse Bioscience, North Billerica, MA) and incubated with 0.5% dimethyl sulfoxide (DMSO) for 3 days. […] Each reagent in the Mito Stress test kit (Seahorse Biosciences), i.e., ATP synthase inhibitor oligomycin, mitochondrial uncoupler carbonyl cyanide-4-(trifluoromethoxy)phenylhydrazone (FCCP), and a fixed-ratio mixture of the mitochondrial complex I (NADH dehydrogenase) inhibitor rotenone and the complex III (CoQH2-cytochrome c reductase) inhibitor antimycin A, was titrated. […] The OCR signals were normalized by cell numbers using DNA content determined by Hoechst's stain as described below.
(§29) PC-3 cells were seeded at a density of 5 × 10^3 cells/well in XF 96-well plates and incubated with the compounds for 3 days. […] Mitochondrial respiration was monitored by measuring OCR on a Seahorse extracellular flux analyzer (XF^e-96). […]
In data set [11] the test system is mitochondrial respiration in primary rat cardiomyocytes. Described as above. Particulars: primary rat cardiomyocytes, 3-day treatments.
Experimental: as §27, §28, §29
Data set [12] concerns mitochondrial spare respiratory capacity in PC-3 cells. Briefly: Oxygen consumption rate / spare respiratory capacity in PC-3 cells. Particulars: PC-3 cells, 3-day treatments.
Data set [13] relates to mitochondrial DNA-encoded cytochrome c oxidase (COX-1). The data set can be described thus: Mitochondrial protein synthesis assay (COX-1, MitoBiogenesis in-cell ELISA) in PC-3 cells. The class given is cell-based, human. To be noted: PC-3 cells; for selectivity of effect on COX-1 versus SDH-A and ATP levels: 5-day treatments. The gist of the method:
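PC-3 cells were exposed to compound for 5 days. Protein levels of nuclear-encoded SDH-A and mitochondrial-encoded COX-1 were then quantified by in-cell ELISA (quantitative immunocytochemistry).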

The next data set relates to HCV replicon. Also on record: method as in PMID 21357300, PMID 21060109. Particulars: cited from earlier work.
A further data set addresses T2, RNA PolI (Rattus norvegicus, UniProt O54889).
T2 construct: complexes were isolated from rat NSN1 cells and HeLa cells, respectively; made in house; host or cells: rat NSN1 cells expressing a FLAG-tagged Pol I subunit
The data set can be described thus: RNA PolI inhibition assay. The format is biochemical. Particulars: NTP analogs 0 to 500 μM; read-out: Mean IC50 ± SD for RNA PolI.
Text: as §1

Molecules are shown by their SMILES. Bounds are passed on as bounds.

In general, IC50 refers to the concentration needed to halve the response being measured.

T1 sequence (O00411 42-1230): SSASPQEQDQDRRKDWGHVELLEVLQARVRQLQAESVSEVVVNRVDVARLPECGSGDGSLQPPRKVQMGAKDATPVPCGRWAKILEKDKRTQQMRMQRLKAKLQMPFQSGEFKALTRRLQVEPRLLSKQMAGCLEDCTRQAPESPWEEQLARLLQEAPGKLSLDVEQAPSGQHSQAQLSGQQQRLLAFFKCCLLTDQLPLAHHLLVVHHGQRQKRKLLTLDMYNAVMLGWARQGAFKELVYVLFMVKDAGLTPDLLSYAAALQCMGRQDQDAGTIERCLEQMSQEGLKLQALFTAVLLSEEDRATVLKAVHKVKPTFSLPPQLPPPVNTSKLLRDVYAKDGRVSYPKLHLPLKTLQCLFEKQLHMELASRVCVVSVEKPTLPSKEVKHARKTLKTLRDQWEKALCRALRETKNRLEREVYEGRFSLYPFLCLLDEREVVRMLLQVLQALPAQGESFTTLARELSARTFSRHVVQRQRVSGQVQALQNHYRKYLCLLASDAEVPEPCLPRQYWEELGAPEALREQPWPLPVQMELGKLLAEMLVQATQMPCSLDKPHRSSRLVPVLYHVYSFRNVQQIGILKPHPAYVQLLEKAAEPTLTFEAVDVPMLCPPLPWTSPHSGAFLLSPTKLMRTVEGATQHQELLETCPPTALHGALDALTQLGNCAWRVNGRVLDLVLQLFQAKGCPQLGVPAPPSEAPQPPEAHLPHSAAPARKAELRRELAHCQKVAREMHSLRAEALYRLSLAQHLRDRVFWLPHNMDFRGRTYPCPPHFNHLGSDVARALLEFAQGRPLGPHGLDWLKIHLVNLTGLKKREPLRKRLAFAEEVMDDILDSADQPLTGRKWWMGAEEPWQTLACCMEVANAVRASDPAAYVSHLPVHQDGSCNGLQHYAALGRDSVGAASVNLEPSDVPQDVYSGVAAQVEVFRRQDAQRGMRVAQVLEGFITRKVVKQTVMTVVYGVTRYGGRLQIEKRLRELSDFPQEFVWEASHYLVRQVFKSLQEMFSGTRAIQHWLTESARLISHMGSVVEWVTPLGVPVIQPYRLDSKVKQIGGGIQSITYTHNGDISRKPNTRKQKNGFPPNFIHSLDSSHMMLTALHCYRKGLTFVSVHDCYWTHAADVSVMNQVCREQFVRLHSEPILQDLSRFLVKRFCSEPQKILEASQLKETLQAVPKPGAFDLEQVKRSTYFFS
T2 sequence (O54889 whole entry): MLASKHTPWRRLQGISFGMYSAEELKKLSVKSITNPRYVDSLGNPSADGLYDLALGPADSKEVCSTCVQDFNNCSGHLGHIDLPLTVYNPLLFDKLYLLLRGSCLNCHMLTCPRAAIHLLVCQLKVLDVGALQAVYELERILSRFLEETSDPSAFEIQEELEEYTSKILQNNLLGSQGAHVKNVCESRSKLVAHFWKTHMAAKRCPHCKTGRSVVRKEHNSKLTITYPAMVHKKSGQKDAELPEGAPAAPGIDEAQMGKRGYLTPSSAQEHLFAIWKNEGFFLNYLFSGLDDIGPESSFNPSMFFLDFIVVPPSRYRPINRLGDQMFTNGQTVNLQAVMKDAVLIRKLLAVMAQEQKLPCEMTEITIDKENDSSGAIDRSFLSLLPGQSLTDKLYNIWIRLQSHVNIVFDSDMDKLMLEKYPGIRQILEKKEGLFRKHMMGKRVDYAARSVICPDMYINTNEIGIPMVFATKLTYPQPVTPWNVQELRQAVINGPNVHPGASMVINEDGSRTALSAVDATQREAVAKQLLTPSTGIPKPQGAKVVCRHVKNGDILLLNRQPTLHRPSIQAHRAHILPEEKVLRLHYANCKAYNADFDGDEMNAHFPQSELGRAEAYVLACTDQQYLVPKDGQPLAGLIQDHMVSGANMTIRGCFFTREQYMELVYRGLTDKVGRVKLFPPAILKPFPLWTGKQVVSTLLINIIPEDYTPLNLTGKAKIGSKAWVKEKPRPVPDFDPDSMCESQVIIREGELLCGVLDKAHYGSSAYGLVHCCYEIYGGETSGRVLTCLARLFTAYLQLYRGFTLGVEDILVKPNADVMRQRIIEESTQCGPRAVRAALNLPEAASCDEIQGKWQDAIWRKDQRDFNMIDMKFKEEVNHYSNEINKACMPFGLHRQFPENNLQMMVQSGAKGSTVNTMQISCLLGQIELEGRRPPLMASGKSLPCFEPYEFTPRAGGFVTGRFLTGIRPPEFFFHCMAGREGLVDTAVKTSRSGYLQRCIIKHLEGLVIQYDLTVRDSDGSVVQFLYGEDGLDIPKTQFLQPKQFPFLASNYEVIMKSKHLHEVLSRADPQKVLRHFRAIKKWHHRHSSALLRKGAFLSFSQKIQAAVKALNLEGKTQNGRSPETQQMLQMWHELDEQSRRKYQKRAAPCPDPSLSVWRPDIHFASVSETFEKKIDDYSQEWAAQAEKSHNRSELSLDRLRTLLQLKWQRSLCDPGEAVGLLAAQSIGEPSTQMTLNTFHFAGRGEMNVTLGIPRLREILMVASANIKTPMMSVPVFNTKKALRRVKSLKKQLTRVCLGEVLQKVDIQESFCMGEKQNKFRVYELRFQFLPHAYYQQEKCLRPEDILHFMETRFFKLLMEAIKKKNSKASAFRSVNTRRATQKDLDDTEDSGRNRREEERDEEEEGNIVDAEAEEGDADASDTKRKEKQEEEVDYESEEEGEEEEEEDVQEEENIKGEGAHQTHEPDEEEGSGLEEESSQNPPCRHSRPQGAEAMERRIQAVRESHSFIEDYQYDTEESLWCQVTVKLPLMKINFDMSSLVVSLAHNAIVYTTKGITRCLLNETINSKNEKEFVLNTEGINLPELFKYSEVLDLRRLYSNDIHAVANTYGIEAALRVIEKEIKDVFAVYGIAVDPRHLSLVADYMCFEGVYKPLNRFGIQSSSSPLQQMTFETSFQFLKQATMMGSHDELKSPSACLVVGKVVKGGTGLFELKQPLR

Regarding `CCOc1nc(N)nc2c1ncn2[C@@H]1O[C@@H]2COP(=O)(OC(C)C)O[C@H]2[C@@]1(C)F` (stereo partly drawn) [PSI-938], the CC50 at 5 days in [1] is > 89 µM; in data set [2], > 100 µM; in [3], > 89 µM; in data set [4], > 100 µM; in [5], > 100 µM. Further, the CC50 in the data set with Prostate cells (PC-3) is > 100 µM. The “Substrate incorporation (% of NTP [mean ± SD]) of PolRMT” value at recombinant human PolRMT is 1.6 ± 0.2 % of NTP. The CC50 at 14 days in [6] and in data set [7] was > 100 µM in each case.

As for `C[C@@]1(O)[C@H](O)[C@@H](CO)O[C@H]1n1ccc(N)nc1=O` [2′CMeC, 2′-C-methyl (2′CMe) cytidine], the CC50 at 5 days was > 89 µM in [1]; 49 ± 18 µM in data set [2]; > 89 µM in data set [3]; 64 ± 18 µM in [4]; > 100 µM in data set [5]. Moreover, the figures for the CC50 at 14 days in data set [6] and in data set [7] were 99 ± 18 µM and 76 ± 16 µM, respectively.

For the compound `CC(C)OC(=O)[C@H](C)N[P@](=O)(OC[C@H]1O[C@@](C#N)(c2ccc3c(N)ncnn23)[C@](C)(O)[C@@H]1OC(=O)C(C)C)Oc1ccccc1` [GS-6620], the CC50 is > 100 µM in the data set on Quiescent PBMCs, 3.1 ± 2.6 µM in data set [8] and 15 ± 7 µM in data set [9].

Take `C[C@@]1(F)[C@H](O)[C@@H](CO)O[C@H]1n1ccc(N)nc1=O` [PSI-6130]: the CC50 at 5 days was > 89 µM in [1]; > 100 µM in [2]; > 89 µM in data set [3]; 100 µM in [4]; > 100 µM in [5]. Further, in the data set with Prostate cells (PC-3), the CC50 was > 100 µM. For the same compound, on recombinant human PolRMT, the “Substrate incorporation (% of NTP [mean ± SD]) of PolRMT” value is reported as 0.81 ± 0.13 % of NTP.

As to `COc1nc(N)nc2c1ncn2[C@@H]1O[C@H](COP(=O)(N[C@@H](C)C(=O)OCC(C)(C)C)Oc2cccc3ccccc23)[C@@H](O)[C@@]1(C)O` (stereo partly drawn) [BMS-986094], the “Substrate incorporation (% of NTP [mean ± SD]) of PolRMT” value on recombinant human PolRMT was “rates similar to those of their corresponding natural rNTPs”. In [10], this compound came in with a CC50 at 3 days of 430 ± 140 nM. Besides, the “selectivity of effect on spare respiratory capacity versus DNA and ATP levels” value in [11] and in data set [12] was “selective inhibition of mitochondrial respiration” throughout. Also, the results for the CC50 in data set [6] and in data set [7] were 4.5 ± 1.5 µM and 2600 ± 500 nM, respectively. Besides, the “potentiation of mitochondrial and cellular toxicity by coincubation with RBV” value in [13] (5-day treatment, RBV 10 μM) is 3- to 4 fold. In [13], the “selectivity of effect on COX-1 versus SDH-A and ATP levels” value was “selective inhibition of COX-1 synthesis”. In addition, the “fold more potent than IDX184 against the HCV replicon” value with HCV replicon is recorded as 30- to 60 fold.

`C[C@@]1(O)[C@H](O)[C@@H](COP(=O)(O)OP(=O)(O)OP(=O)(O)O)O[C@H]1n1cnc2c(=O)[nH]c(N)nc21` [2′CMeGTP]: the “Substrate incorporation (% of NTP [mean ± SD]) of PolRMT” value on recombinant human PolRMT is recorded as 92 ± 33 % of NTP. At RNA PolI, the IC50 was 300 ± 60 µM.

In the case of `[N-]=[N+]=N[C@]1(CO)O[C@@H](n2ccc(N)nc2=O)[C@H](O)[C@@H]1O` [4′-AzidoC, 4′-azido cytidine], the CC50 at 5 days is > 89 µM in [1]; 30 ± 6 µM in [2]; > 89 µM in data set [3]; > 100 µM in [4]; > 100 µM in data set [5]. The figures for the CC50 at 14 days in [6] and in data set [7] were > 100 µM and 108 ± 12 µM, respectively. In addition, the “selectivity of effect on spare respiratory capacity versus DNA and ATP levels” value in data set [12] is “selective inhibition of mitochondrial respiration”. The “selectivity of effect on COX-1 versus SDH-A and ATP levels” value in data set [13] is reported as “selective inhibition of COX-1 synthesis”.

As to `CC(C)OC(=O)[C@H](C)N[P@](=O)(OC[C@H]1O[C@@H](n2ccc(=O)[nH]c2=O)[C@](C)(F)[C@@H]1O)Oc1ccccc1` [Sofosbuvir], the CC50 (in data set [8]; in data set [9]; in the data set on Prostate cells (PC-3)) was > 100 µM each time. The results for the “Substrate incorporation (% of NTP [mean ± SD]) of PolRMT” value at recombinant human PolRMT and at recombinant human PolRMT (listed as sofosbuvir) were 0.45 ± 0.40 % of NTP and < 1 % of NTP, respectively.

Source of the values: publication PMC4750701, “Role of Mitochondrial RNA Polymerase in the Toxicity of Nucleotide Inhibitors of Hepatitis C Virus” (Antimicrobial Agents and Chemotherapy, 2016).
